Results published in patent publication US5902812A, “Pharmaceutical piperazine compounds” (Xenova Limited, priority 1994, dated 1999).
Structures can show the parent of a compound that is named as a salt. Blank lines part the entries; values can stand above or below the compound they belong to.

Molecular target: PAI-1 (Homo sapiens, UniProt P05121)
Assay: biochemical
Details: for IC50: PAI chromogenic substrate assay, read-out: IC50
[1] = 20 μM (third part of Table 1), read-out: Degree of inhibition in PAI chromogenic substrate assay
[2] = 100 μM (third part of Table 1), read-out: Degree of inhibition in PAI chromogenic substrate assay
[3] = 6.25 μM, read-out: Degree of inhibition in PAI chromogenic substrate assay

Sequence of PAI-1 (P05121 24-402): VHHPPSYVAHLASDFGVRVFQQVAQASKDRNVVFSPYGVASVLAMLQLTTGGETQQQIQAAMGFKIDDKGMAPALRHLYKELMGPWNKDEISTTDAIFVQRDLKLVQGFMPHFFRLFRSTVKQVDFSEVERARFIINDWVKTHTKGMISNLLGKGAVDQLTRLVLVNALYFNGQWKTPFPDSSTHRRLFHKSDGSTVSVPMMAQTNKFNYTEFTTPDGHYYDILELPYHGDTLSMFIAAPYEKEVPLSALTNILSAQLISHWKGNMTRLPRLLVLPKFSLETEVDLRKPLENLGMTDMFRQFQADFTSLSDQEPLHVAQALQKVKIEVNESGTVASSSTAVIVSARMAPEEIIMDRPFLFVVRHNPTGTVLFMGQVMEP
Method: In this assay, a compound is incubated with PAI-1 prior to addition to the tPA assay system. Inhibition of PAI-1 results in the production of plasmin from plasminogen. In turn, plasmin cleaves the chromogenic substrate S2251 (Kabi Vitrum) producing pNA (p-nitroaniline) which is detected spectrophotometrically at 405 nm (K. Nilsson et al, Fibrinolysis (1987) 1, 163-168).
Compounds of formula (A) were tested in a PAI chromogenic substrate assay. In the assay (K.Nilsson, Fibrinolysis (1987) 1, 163-168) each compound was incubated with PAI-1 prior to addition to the tPA assay system. […] In turn, the plasmin cleaved the chromogenic substrate S2251 (Kabi-Vitrum) producing pNA (p-nitroaniline) which was detected spectrophotometrically at 405 nm.

- inhibition at 20 µM [1]: 3%
- inhibition at 100 µM [2]: 36%
Structure (SMILES): CN(C)CCCOc1ccc(/C=c2\[nH]c(=O)/c(=C/c3ccc(C(C)(C)C)cc3)[nH]c2=O)cc1 [Compound 5238, (3Z,6Z)-3-(4-(3-Dimethylaminopropoxy)benzylidene)-6-(4-tert-butylbenzylidene)-2,5-piperazinedione]

- inhibition at 100 µM [2]: 10%
Structure (SMILES): CN(C)CCCOc1ccc(/C=c2\[nH]c(=O)/c(=C/c3cccc(C#N)c3)[nH]c2=O)cc1 [Compound 5232, (3Z,6Z)-3-(3-Cyanobenzylidene)-6-(4-(3-dimethylaminopropoxy)benzylidene)-2,5-piperazinedione]

- inhibition at 100 µM [2]: 71%
- IC50: 67 µM
Structure (SMILES): CN(C)CCCOc1ccc(/C=c2\[nH]c(=O)/c(=C/c3ccccc3C(F)(F)F)[nH]c2=O)cc1 [Compound 5251, (3Z,6Z)-6-(4-(3-Dimethylaminopropoxy)benzylidene)-3-(2-trifluoromethylbenzylidene)-2,5-piperazinedione]

- inhibition at 100 µM [2]: 10%
Structure (SMILES): CC(=O)Nc1ccccc1/C=c1\[nH]c(=O)/c(=C/c2ccc(OCCCN(C)C)cc2)[nH]c1=O [Compound 5248]

- inhibition at 20 µM [1]: 52%
- inhibition at 50 µM (50 μM (third part of Table 1), read-out: Degree of inhibition in PAI chromogenic substrate assay): 65%
- inhibition at 100 µM [2]: 75%
Structure (SMILES): CN(C)CCCOc1ccc(/C=c2\[nH]c(=O)/c(=C/c3ccccc3Br)[nH]c2=O)cc1 [Compound 5060.HCl, (3Z,6Z)-3-(2-Bromobenzylidene)-6-(4-(3-dimethylaminopropoxy)benzylidene)-2,5-piperazinedione]

- inhibition at 20 µM [1]: 80%
- inhibition at 100 µM [2]: 33%
- IC50: 15 µM
Structure (SMILES): CN(C)CCCOc1ccc(/C=c2\[nH]c(=O)/c(=C/c3cccc(N4C(=O)c5ccccc5C4=O)c3)[nH]c2=O)cc1 [Compound 5255, (3Z,6Z)-6-(4-(3-Dimethylaminopropoxy)benzylidene)-3-(3-phthalimidobenzylidene)-2,5-piperazinedione]

- IC50: 1.8 µM
Structure (SMILES): CN(C)CCCOc1ccc(/C=c2\[nH]c(=O)/c(=C/c3ccc(C#N)cc3)[nH]c2=O)cc1 [Compound 5245]

- Degree of inhibition in PAI chromogenic substrate assay (20 μM (third part of Table 1), 20 µM): 65%
- Degree of inhibition in PAI chromogenic substrate assay (100 μM (third part of Table 1), 100 µM): 46%
- IC50: 6.5 µM
Structure (SMILES): CN(C)CCCOc1ccc(/C=c2\[nH]c(=O)/c(=C/c3cccc(Cl)c3)[nH]c2=O)cc1 [Compound 5240]

- Degree of inhibition in PAI chromogenic substrate assay (6.25 μM): 9%
- Degree of inhibition in PAI chromogenic substrate assay (12.5 μM): 7%
- Degree of inhibition in PAI chromogenic substrate assay (25 μM): 18%
- Degree of inhibition in PAI chromogenic substrate assay (50 μM): 38%
- Degree of inhibition in PAI chromogenic substrate assay (100 μM): 64%
Structure (SMILES): CN(C)CCOc1ccc(/C=c2\[nH]c(=O)/c(=C/c3ccccc3)[nH]c2=O)cc1 [Compound 1924, (3Z,6Z)-3-Benzylidene-6-(4-(2-dimethylaminoethoxy)benzylidene)-2,5-piperazinedione]

- IC50: 15 µM
Structure (SMILES): CN(C)CCCOc1ccc(/C=c2\[nH]c(=O)/c(=C/c3cccc(OC(F)(F)F)c3)[nH]c2=O)cc1 [Compound 5374, (3Z,6Z)-6-(4-(3-Dimethylaminopropoxy)benzylidene)-3-(3-trifluoromethoxybenzylidene)-2,5-piperazinedione]

- inhibition at 6.25 µM [3]: 0%
- Degree of inhibition in PAI chromogenic substrate assay (100 μM): 37%
Structure (SMILES): CN(C)CCOc1ccccc1/C=c1\[nH]c(=O)/c(=C/c2ccccc2)[nH]c1=O [Compound 1979, (3Z,6Z)-Benzylidene-3-(2-(2-dimethylaminoethoxy)benzylidene)-2,5-piperazinedione]

- IC50: 2.8 µM
Structure (SMILES): CN(C)CCCOc1ccc(/C=c2\[nH]c(=O)/c(=C/c3ccc(Cl)c(Cl)c3)[nH]c2=O)cc1 [Compound 5236]

- inhibition at 6.25 µM [3]: 2%
- inhibition at 12.5 µM (12.5 μM, read-out: Degree of inhibition in PAI chromogenic substrate assay): 0%
- Degree of inhibition in PAI chromogenic substrate assay (25 μM): 6%
- Degree of inhibition in PAI chromogenic substrate assay (50 μM): 20%
- Degree of inhibition in PAI chromogenic substrate assay (100 μM): 52%
Structure (SMILES): CN(C)CCOc1ccc(/C=c2\[nH]c(=O)/c(=C/c3ccccc3)[nH]c2=O)c(OCCN(C)C)c1 [Compound 1969]

- inhibition at 20 µM [1]: 39%
Structure (SMILES): CN(C)CCCOc1ccc(/C=c2\[nH]c(=O)/c(=C/c3ccc(C(=O)NCCCCc4ccccc4)cc3)[nH]c2=O)cc1 [Compound 5347, N-(4-Phenylbutyl)-4-((3Z,6Z)-6-(4-(3-Dimethylaminopropoxy)benzylidene)-2,5-dioxo-3-piperazinylidene)methylbenzamide]
